# What was measured:
# [1] = test system: P. berghei (ANKA GFP-luc); assay: Prevention of transmission of P. berghei to mosquitoes (oocyst count in midguts); assay type: in vivo, CD-1 mice / Anopheles stephensi mosquitoes; settings: single ascending doses (all doses), mosquitoes fed Day 2, midguts dissected Day 9
# Protocol: CD-1 mice were infected with P. berghei (ANKA GFP-luc) for 96 hours prior to treatment with vehicle [70% PEG400 and 30% (5% glucose in H2O)] or single ascending doses of compound 37 (Day 0). Average % parasitemia on Day 0 was 2.1%. On Day 2 of the study, mice were anesthetized and female Anopheles stephensi mosquitoes were allowed to feed on the mice for 20 minutes. On Day 9, the midguts of the mosquitoes were dissected out, and oocysts were enumerated microscopically (12.5× magnification, oocysts visible as puncta in the control, FIG. 2, Panel A).
# P. falciparum Dd2 = assay: Activity against the Dd2 strain of P. falciparum (SYBR Green I, 72 h); assay type: cell-based; settings: Plasmodium falciparum, DD2, 72 h, P. falciparum Dd2, 72 h incubation
# Method in brief: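 Parasites in human RBCs at 1% parasitemia and 1.0% hematocrit, exposed to compounds (0.125% DMSO) for 72 h at 37°C under 93% N2/4% CO2/3% O2. SYBR Green I in saponin/Triton lysis buffer added, 24 h staining, fluorescence read at 485/530 nm. EC50 derived against 20 μM mefloquine background and DMSO baseline.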
# [2] = test system: P. berghei (ANKA GFP-luc) blood stage parasites; assay: Single dose in vivo efficacy, P. berghei blood stage, bioluminescence imaging; set-up: species or system CD-1 mice
# Protocol: CD-1 mice (female, 6-7-week-old) were inoculated with 1×10^6 P. berghei (ANKA GFP-luc) blood stage parasites intravenously 24 hours before treatment and compounds were administered as a single 100 or 50 mg/kg dose orally at 0 hour. Parasitemia was monitored by the In vivo Imaging System (IVIS 100, Xenogen; Caliper Life Science) to acquire the bioluminescence signal. Animals with parasitemia exceeding 25% were euthanized.
# Infection proceeds rapidly in untreated mice (control), which were euthanized around day 6 of the study. Compound 37 and 68 were tested at different times; thus the artesunate control (ART) is shown for each compound. […] All images are normalized to the same color scale.
# [3] = test system: P. berghei (ANKA luc-GFP) sporozoites; assay: In vivo P. berghei liver stage assay; set-up: species or system CD-1 mice; settings: single PO dose
# Protocol: CD-1 mice were inoculated (IV) with 1×10^5 P. berghei (ANKA luc-GFP) sporozoites freshly dissected out from A. stephensi and immediately treated with a single dose (PO) of vehicle or compound 37 (25, 5.0, 1.0 or 0.2 mg/kg) at 0 hour. Bioluminescence signals from the transgenic parasites were monitored by the In vivo Imaging System (IVIS 100, Xenogen; Caliper Life Science).
# The ED50 for compound 37 in this assay was 1 mg/kg.
smiles,measurement,setting,value
"COc1ccc(NC(=O)N2CCCCN3[C@H](CN)[C@H](c4ccc(C#Cc5ccccc5)cc4)[C@@H]3C2)cc1 [Compound 37, (8R,9S,10S)-10-(aminomethyl)-N-(4-methoxyphenyl)-9-[4-(2-phenylethynyl)phenyl]-1,6-diazabicyclo[6.2.0] decane-6-carboxamide]",oocysts in mosquito midguts,[1],no detectable oocysts
same,EC50,P. falciparum Dd2,148 nM
same,time parasitemia repressed,[2]; single 100 mg/kg oral dose,about 1 week
same,ED25,"[2]; single oral dose, P. berghei blood stage",100 mg/kg
same,ED50,"[3]; Plasmodium berghei, in Mus musculus, liver stage",1 mg/kg
same,parasitemia after sporozoite inoculation,[3]; dosed at ≥5 mg/kg,remained parasite free

# — patent publication US11325913B2, “Compounds and methods for the treatment of malaria” (THE BROAD INSTITUTE, INC., priority 2013, dated 2022)
